We go through three molecules from US20160084855A1, “Compositions and Methods for Modulation and Detection of Immune and Inflammatory Responses” (UNIVERSITY OF CONNECTICUT, priority 2013, published 2016).

One data set addresses T1, human TLR2 (Homo sapiens, UniProt O60603).
T1 construct: host or cells: HEK293
Briefly: HEK293 cells transfected with human TLR2, CD14 (MD-2) and SEAP reporter. Type of data set: cell-based. The note with it: for HEK cell activation versus DMSO vehicle (stimulated/nonstimulated ratio): 24 h, MMP 0.2 μg/ml, LTA 2 μg/ml, lipid 654 and lipid 430 0.69 μg/ml, P<0.05; for Activation of human TLR2 in HEK cells: HPLC fractions of P. gingivalis total lipids; for Effect of pretreatment with anti-human TLR2 antibody on HEK-TLR2 cell activation: antibody 10 μg/mL 1 hour, MMP 0.1 μg/ml, LTA 1 μg/ml, lipid 430 and lipid 654 0.69 μg/ml. From the text: In vitro effects, human cells: HEK293 cells (human embryonic kidney cells) transfected with the human TLR2 and SEAP (secreted embryonic alkaline phosphatase) genes, were used to assay the function of Lipid 654 in vitro. The HEK cells, which naturally express variable levels of TLRs 1, 3, 5, 6, 7 and 9, were also transfected with the gene for CD14. CD14 is a co-receptor that enhances TLR2 responses. Additionally, TLR2 responses are most often mediated via another co-receptor which, in most cases, is either TLR1 or TLR6. The SEAP reporter gene is under the control of the IFN-β minimal promoter fused to five NF-κB and AP-1-binding sites. Stimulation with a TLR2 ligand activates NF-κB and AP-1 which induce the production of SEAP which is then quantitated as a colorimetric change in the presence of a detection medium.
Lipid 654, solubilized in 50% DMSO in water, and two documented TLR2 agonists, MMP and lipotechoic acid (LTA), were incubated for 24 hours with the HEK cells in the presence or absence of antibodies to TLR2 and TLR6.
(§1) Cell lines and assays: Human embryonic kidney cells (HEK293 cells), either nontransfected or transfected with human TLR2 or human TLR4 and stably expressing MD-2 and CD14, were purchased from InvivoGen. Cells were cultured in Dulbecco's modified Eagle's medium (DMEM; Gibco) containing 4.5 g/liter 1-glucose and 10% fetal bovine serum (FBS). The activities of specific TLR agonists were measured through a colorimetric assay for the secretory embryonic alkaline phosphatase (SEAP), a reporter gene that is linked to NF-κB activation. Measurement of SEAP activity using the Quanti-blue substrate (InvivoGen) after TLR agonist treatment was carried out in test medium (DMEM, 10% FBS) without antibiotics. NF-κB activation was expressed as a response ratio for each stimulus relative to SEAP activity in unstimulated (vehicle control) cells. For in vitro testing, all lipid preparations tested were solubilized in a 50% mixture of dimethyl sulfoxide (DMSO)-water (approximately 1.11% DMSO in the final culture medium).
To determine the ability of P. gingivalis lipids to activate human cells via TLRs, the total lipids of P. gingivalis were fractionated by HPLC, and an aliquot of each fraction was dried and dissolved in 50% DMSO in water. Each HPLC fraction was then tested for cell activation by using HEK293 cells stably transfected with human TLR2, CD14, MD-2, and SEAP genes. In addition, the HEK293 cells naturally express variable levels of TLRs 1, 3, 5, 6, 7, and 9. The SEAP reporter gene is under the control of the beta interferon minimal promoter fused to five NF-κB and AP-1 binding sites. Stimulation with a TLR2 ligand activates NF-κB and AP-1, which induces the production of SEAP. SEAP is then quantitated via a colorimetric change in medium samples following the addition of a suitable enzyme substrate. Using this cell screen for human TLR2 engagement, each HPLC lipid fraction was screened for cell activation.

Another data set has as its target T2, human TLR4 (Homo sapiens, UniProt O00206+Q9Y6Y9).
T2 construct: host or cells: HEK293
Briefly: HEK293 cells transfected with human TLR4, CD14 (MD-2) and SEAP reporter. Type of data set: cell-based. Particulars: 24 hours; for Activation of TLR4-expressing HEK293 cells: Example 23, lipids 0.69 μg/ml, LPS 1 μg/ml. On the procedure: as §1
To test whether lipid 654 and lipid 430 can function as ligands for TLR4, HEK293 cells transfected with the human TLR4, CD14, and MD-2 genes but not expressing TLR2 were utilized.

A further data set deals with CCL2. Briefly: Serum CCL2 by ELISA after injection of lipid into mice. Type of data set: in vivo, mouse. The note with it: four hours. On the procedure:
Lipid 654 was injected intraperitoneally (i.p.) into mice and three to four hours later serum was drawn and analyzed for levels of CCL2 via ELISA. Both female wild type (WT) C57BL/6 mice and female TLR2-deficient (TLR2−/−) mice were injected i.p. with either DMSO (vehicle control; VC) or Lipid 654. Three to four hours later, serum was drawn from these mice and analyzed for levels of CCL2.
In vivo assays: Wild-type (WT) C57BL/6 mice or TLR2^−/− mice were injected intraperitoneally (i.p.) or intravenously (i.v.) with vehicle control or specific lipids. Four hours later, blood samples were obtained from mice, and the mice were euthanized. Serum was separated from the blood samples and frozen at −80° C. until analysis. Serum samples were analyzed for levels of CCL2 by ELISA (R&D, Minneapolis, Minn.).
Lipid 654 was injected i.p. in 50% DMSO and lipid 430 was injected i.v. in phosphate-buffered saline (PBS). WT female C57BL/6 mice and TLR2^−/− female mice were injected with either vehicle, lipid 654, or lipid 430. Four hours later, serum was recovered from these mice and analyzed for levels of CCL2. […] The same was true for lipid 430.
For orientation: In an ELISA, binding on a coated surface is turned into a signal by an enzyme label.

The test system of another data set is female SJL mice with EAE. Briefly: EAE by transfer of PLP-stimulated lymph node lymphocytes into SJL mice. Type of data set: in vivo, mouse. The note with it: 2 ng of Lipid 654 intravenously on day of cell transfer; 30 days; 5 mice; p=0.0006. On the procedure:
Female SJL mice were injected intra-peritoneally with 30×10^6 4-day in-vitro-activated proteolipid protein (PLP)-stimulated lymph node lymphocytes and on the same day injected intravenously with either phosphate buffered saline (PBS) (vehicle control=“VC”) or 2 ng of Lipid 654. Mice were followed for 30 days for development of EAE and scored as 1=tail paralysis; 2=abnormal gait; 3=paralyzed hind legs; 4=paralyzed front and hind legs; 5=death. The results in FIG. 21 depict the daily mean for 5 mice injected with the VC and 5 mice injected with Lipid 654. […] Thus, MS patients can be treated directly with Lipid 654 or with commensal bacteria that produce increased amounts of Lipid 654.

The subject of a further data set is TLR4. Particulars: Gomi et al., J Immunol. 2002; cited from earlier work.
The next data set concerns the target T3, TLR2 (Mus musculus, UniProt Q9QUN7).
T3 construct: endogenous in cells; host or cells: mouse bone cells
Briefly: TLR2 engagement in mouse bone cells. Type of data set: cell-based. An excerpt:
Phospholipase A2 enzymes are recovered in all tissues and levels of this enzyme are increased in association with virtually all chronic inflammatory diseases. In fact, phospholipase A2 inhibitors are being used to treat atherosclerosis, multiple sclerosis, and a variety of other conditions. Phospholipase A2 hydrolyzes glycerol phospholipids so that the ester linked fatty acid in the #2 carbon position of glycerol is released, but only for a glycerol ester linkage in the L enantiomeric configuration. Phospholipase A2 will not hydrolyze fatty acid linked in the D enantiomeric form of glycerol.

Entries after “also recorded” stand apart in the source; their conditions may differ.

T2 sequence (O00206 24-839): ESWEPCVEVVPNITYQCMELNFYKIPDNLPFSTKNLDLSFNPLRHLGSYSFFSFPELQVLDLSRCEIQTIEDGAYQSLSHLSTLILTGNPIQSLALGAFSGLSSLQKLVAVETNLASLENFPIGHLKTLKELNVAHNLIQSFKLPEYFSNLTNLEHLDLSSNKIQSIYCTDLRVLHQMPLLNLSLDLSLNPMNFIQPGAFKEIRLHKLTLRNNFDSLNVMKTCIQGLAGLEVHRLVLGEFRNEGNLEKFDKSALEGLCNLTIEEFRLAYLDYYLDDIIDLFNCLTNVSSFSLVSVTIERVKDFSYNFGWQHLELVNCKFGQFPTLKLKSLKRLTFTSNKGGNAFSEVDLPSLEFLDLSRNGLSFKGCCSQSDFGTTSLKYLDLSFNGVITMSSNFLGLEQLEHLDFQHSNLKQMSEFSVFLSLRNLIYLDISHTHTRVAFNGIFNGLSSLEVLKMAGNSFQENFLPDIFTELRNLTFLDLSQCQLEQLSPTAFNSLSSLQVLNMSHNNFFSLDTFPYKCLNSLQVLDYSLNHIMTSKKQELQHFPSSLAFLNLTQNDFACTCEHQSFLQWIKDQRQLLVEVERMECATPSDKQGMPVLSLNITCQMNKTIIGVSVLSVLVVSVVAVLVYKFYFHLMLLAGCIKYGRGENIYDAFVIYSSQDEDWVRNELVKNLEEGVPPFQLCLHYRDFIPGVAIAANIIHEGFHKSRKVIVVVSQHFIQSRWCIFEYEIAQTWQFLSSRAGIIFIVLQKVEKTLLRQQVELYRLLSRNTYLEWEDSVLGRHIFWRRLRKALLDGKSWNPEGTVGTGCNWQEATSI
T2 sequence (Q9Y6Y9 17-160 limits assumed): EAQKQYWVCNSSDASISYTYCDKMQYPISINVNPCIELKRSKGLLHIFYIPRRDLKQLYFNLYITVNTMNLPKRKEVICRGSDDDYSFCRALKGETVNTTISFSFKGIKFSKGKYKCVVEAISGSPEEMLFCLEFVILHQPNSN
T1 sequence (O60603 21-784): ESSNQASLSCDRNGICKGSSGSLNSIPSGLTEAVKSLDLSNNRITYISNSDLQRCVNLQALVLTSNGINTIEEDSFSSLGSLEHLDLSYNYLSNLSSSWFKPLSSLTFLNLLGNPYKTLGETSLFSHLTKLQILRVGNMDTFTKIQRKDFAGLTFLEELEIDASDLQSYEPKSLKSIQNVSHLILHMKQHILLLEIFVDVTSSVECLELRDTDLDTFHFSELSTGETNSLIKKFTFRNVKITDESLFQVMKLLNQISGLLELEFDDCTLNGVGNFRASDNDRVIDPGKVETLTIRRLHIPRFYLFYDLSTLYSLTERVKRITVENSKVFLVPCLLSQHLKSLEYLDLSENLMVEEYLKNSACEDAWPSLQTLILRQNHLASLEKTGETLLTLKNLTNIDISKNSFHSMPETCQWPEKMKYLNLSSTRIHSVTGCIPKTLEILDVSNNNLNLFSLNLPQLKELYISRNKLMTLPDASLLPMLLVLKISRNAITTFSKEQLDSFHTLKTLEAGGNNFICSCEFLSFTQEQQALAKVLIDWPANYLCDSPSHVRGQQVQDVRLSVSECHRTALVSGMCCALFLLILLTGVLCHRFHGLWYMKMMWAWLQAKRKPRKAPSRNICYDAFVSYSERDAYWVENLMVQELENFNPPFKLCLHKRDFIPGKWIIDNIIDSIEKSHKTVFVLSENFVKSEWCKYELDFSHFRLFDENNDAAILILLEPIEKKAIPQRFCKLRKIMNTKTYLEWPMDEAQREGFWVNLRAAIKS
T1 sequence (Q9Y2C9 32-796 partner): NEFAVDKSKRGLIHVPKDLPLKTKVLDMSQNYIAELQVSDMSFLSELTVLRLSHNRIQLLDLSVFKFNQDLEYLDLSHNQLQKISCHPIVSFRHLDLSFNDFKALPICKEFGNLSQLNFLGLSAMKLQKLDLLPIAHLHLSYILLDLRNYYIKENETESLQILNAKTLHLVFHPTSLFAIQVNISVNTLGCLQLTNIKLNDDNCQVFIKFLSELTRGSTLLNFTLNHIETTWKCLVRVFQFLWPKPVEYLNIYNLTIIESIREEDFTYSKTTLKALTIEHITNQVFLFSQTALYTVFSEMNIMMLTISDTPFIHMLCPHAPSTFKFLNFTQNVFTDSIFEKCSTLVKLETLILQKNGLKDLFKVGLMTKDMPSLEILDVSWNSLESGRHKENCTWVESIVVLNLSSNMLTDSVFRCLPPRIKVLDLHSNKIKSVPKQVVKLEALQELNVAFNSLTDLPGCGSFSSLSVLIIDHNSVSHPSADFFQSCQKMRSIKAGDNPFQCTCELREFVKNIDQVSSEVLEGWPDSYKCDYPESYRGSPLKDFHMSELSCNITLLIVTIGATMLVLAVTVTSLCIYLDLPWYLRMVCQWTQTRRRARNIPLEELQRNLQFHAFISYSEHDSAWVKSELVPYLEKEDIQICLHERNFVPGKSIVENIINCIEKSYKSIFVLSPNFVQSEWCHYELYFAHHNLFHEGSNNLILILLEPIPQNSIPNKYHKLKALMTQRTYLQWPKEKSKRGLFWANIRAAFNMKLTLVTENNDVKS
T3 sequence (Q9QUN7 25-784): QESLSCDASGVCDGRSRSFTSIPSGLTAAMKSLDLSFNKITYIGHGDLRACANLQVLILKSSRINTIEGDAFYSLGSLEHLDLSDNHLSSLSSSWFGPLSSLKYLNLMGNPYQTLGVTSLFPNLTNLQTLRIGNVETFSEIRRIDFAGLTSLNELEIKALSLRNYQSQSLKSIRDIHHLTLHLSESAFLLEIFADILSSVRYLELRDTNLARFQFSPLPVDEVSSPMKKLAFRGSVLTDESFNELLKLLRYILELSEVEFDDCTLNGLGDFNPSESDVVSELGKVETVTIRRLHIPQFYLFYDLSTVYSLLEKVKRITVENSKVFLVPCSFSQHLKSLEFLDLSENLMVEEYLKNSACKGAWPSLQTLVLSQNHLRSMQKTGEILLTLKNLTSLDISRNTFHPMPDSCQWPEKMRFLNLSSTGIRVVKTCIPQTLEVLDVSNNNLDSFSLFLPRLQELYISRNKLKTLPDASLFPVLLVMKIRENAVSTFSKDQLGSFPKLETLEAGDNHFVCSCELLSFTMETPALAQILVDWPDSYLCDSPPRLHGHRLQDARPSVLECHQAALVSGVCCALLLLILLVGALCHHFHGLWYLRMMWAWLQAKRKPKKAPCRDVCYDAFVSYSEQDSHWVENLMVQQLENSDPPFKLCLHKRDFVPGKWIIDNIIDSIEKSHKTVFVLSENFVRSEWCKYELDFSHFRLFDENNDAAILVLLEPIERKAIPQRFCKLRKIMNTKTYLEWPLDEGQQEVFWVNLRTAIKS
T3 sequence (Q9EPW9 28-795 partner): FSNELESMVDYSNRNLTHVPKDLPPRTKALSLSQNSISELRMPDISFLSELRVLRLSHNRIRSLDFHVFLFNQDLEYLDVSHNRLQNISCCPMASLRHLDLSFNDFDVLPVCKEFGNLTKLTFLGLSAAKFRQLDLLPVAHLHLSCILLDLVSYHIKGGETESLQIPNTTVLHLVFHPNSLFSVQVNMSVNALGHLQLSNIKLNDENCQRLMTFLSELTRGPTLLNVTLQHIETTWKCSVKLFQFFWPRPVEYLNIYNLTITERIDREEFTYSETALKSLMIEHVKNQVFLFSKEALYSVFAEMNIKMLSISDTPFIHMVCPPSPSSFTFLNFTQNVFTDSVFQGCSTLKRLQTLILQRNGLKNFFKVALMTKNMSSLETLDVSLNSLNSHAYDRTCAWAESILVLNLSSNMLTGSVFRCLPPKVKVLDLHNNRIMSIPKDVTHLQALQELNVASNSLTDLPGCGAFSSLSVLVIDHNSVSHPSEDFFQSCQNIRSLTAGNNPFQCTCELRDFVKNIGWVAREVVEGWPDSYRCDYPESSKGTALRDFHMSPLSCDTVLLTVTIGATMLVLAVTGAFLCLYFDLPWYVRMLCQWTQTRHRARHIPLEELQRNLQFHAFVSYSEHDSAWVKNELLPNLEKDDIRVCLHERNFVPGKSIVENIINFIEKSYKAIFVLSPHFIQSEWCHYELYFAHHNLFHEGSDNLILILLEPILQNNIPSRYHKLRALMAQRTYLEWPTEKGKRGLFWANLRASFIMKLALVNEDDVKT
Experimental for phospholipase A2 (PLA2): Aliquots of the enriched 654 (10 μg each) were dispensed into conical vials and the residual solvent was dried. Tris-buffered (10 mM) saline containing either no calcium/0.01% sodium EDTA, 2.5 mM calcium, or 10 mM calcium was added to specific vials (1.0 ml) and the solution was sonicated for 30 seconds. Specific vials were then supplemented with either porcine pancreatic phospholipase A2 (PP PLA2), honey bee venom PLA2, bovine liver nonspecific esterase (BLE), phospholipase C (PLC), lipoprotein lipase (LL), phospholipase D (PLD), or cobra venom factor (CVF). PP PLA2 or HBV PLA2 was added at a concentration of 96 or 120 U/ml, respectively. All other lipase preparations were used at this or a higher concentration. Controls were dissolved in the indicated Tris buffer but were not supplemented with enzyme. Each vial was stirred for 3 days after which the hydrolyzate was acidified with 100 ul of glacial acetic acid and extracted three times with chloroform. The pooled extracts were dried, reconstituted in HPLC solvent, and evaluated for recovery of Lipid 654 and Lipid 430 using MRM-MS as previously described. Two different isolates of Lipid 654, indicated as (A) and (B), were compared for hydrolysis by either porcine pancreatic or honey bee venom PLA2.

`CC(C)CCCCCCCCCCCC(=O)OC(CCCCCCCCCCCC(C)C)CC(=O)NCC(=O)N[C@@H](CO)C(=O)O` (stereo partly shown) [Lipid 654]: the “HEK cell activation versus DMSO vehicle (stimulated/nonstimulated ratio)” value at human TLR2 is given as “promoted significant HEK cell activation over the control cells; also recorded: significantly elevated over the DMSO vehicle”. For the same molecule, the “Effect of anti-TLR2 and anti-TLR6 antibodies on NF-κB activation” value at human TLR2 (Example 17, 24 hours) is “inhibited by anti-TLR2 and anti-TLR6 antibodies”. Besides, the “NF-κB activation (SEAP)” value at human TLR2 (Example 17, 24 hours, no antibodies) is listed as “demonstrated NF-κB-activation”. At human TLR2 (24 hours), the “Activation of human TLR2 in HEK cells” value was “show the capacity to activate human TLR2 in HEK cells” and the “Effect of pretreatment with anti-human TLR2 antibody on HEK-TLR2 cell activation” value is on record as “significantly inhibited by pretreatment with anti-human TLR2 antibody”. Also, the “Activation of TLR4-expressing cell line” value at human TLR4 (Example 17, LPS derived from P. gingivalis, two preparations of Lipid 654) was “showed no ability to activate the TLR4-expressing cell line”. Further, the “Activation of TLR4-expressing HEK293 cells” value at human TLR4 is “showed no capacity to activate the TLR4-expressing cell line”. The “Serum levels of CCL2” value in the data set with CCL2 (TLR2−/− mice, lipid 654 1 μg i.p. in 50% DMSO) is “failed to do so”. Moreover, the “Serum levels of CCL2” value with CCL2 (WT mice, lipid 654 1 μg i.p. in 50% DMSO) is recorded as “induced a significant increase in serum levels of CCL2”. In addition, the “Course of EAE compared to vehicle control” value with female SJL mice with EAE is “significantly inhibited the course of EAE”. Further, the “Hydrolysis to Lipid 430 by other common lipase enzymes” value in the data set on phospholipase A2 (PLA2) (BLE, PLC, LL, PLD, CVF, 3 days) is on record as “no other common lipase enzymes”. Besides, in the data set with phospholipase A2 (PLA2) (porcine pancreas PLA2 96 U/ml or honey bee venom PLA2 120 U/ml, 3 days), the “Hydrolysis by phospholipase A2 enzymes” value is on record as “is hydrolyzed by phospholipase A2 (PLA2) enzymes”. For the same molecule, the “Portion not hydrolyzed by PLA2” value in the data set on phospholipase A2 (PLA2) (repeated treatment with PLA2) was “Approximately half”.

`CC(C)CCCCCCCCCCCC(=O)O[C@H](CCCCCCCCCCCC(C)C)CC(=O)NCC(=O)NC(CO)C(=O)O` (stereo partly shown) [Flavolipin]: in the data set with TLR4, the “Innate immune activation via TLR4” value is listed as “acting as an agonist for TLR4”.

Turning to `CC(C)CCCCCCCCCCCC(O)CC(=O)NCC(=O)N[C@@H](CO)C(=O)O` (stereo partly shown) [Lipid 430], at human TLR2, the “HEK cell activation versus DMSO vehicle (stimulated/nonstimulated ratio)” value was “promoted significant HEK cell activation over the control cells; also recorded: significantly elevated over the DMSO vehicle”. Besides, at human TLR2 (24 hours), the “Activation of human TLR2 in HEK cells” value is on record as “activates HEK cells through TLR2; also recorded: show the capacity to activate human TLR2 in HEK cells”. Moreover, on human TLR2 (24 hours), the “Effect of pretreatment with anti-human TLR2 antibody on HEK-TLR2 cell activation” value was “significantly inhibited by pretreatment with anti-human TLR2 antibody”. For the same molecule, the “Activation of TLR4-expressing HEK293 cells” value at human TLR4 is “showed no capacity to activate the TLR4-expressing cell line”. Besides, the “Serum levels of CCL2” value in the data set on CCL2 (TLR2−/− mice, lipid 430 2.5 μg i.v. in PBS) is “failed to do so”; in the data set with CCL2 (WT mice, lipid 430 2.5 μg i.v. in PBS), “induced a significant increase in serum levels of CCL2”. At TLR2, the “Potency in engaging TLR2 relative to the Lipid 654 preparation” value is given as “at least ten fold more potent”. The TLR2 agonism result at TLR2 (Lipid 430 released with PLA2 treatment of Lipid 654) is listed as “strong TLR2 agonist”.
